Values quoted from earlier work as cited in US8759069B2, “Contaminant control in Zymomonas fermentation using hop acids” (priority 2012, dated 2014).

What was measured:
[1] = tested on: bacterial contamination; conditions: batch Zymomonas mobilis fermentation for ethanol production
[2] = tested on: Zymomonas mobilis strain ZM4; conditions: antibiotic concentrations that are safe to use with yeast

Row | Compound | control of bacterial contamination [1] | effect on Zymomonas mobilis strain ZM4 [2]
1 | CC1(C)S[C@@H]2[C@H](NC(=O)Cc3ccccc3)C(=O)N2[C@H]1C(=O)O [penicillin G] | successfully used to control bacterial contamination | safe for use with Zymomonas
2 | [H]/N=C(/N)N[C@H]1[C@H](O)[C@@H](O)[C@H](O[C@@H]2O[C@@H](C)[C@](O)(C=O)[C@H]2O[C@@H]2O[C@@H](CO)[C@H](O)[C@@H](O)[C@@H]2NC)[C@@H](N/C(N)=N\[H])[C@@H]1O [streptomycin] | – | inhibitory to growth
3 | polymixin | – | inhibitory to growth
